Source: patent US9260439B2, “Dihydropyrrolopyrimidine derivatives” (PFIZER INC., priority 2014, dated 2016)

What follows are compounds tested against truncated PI3Kα (p110α/iSH2 p85α) (Homo sapiens (Human), UniProt P42336) (assay: PI3KA_Act fluorescence polarization kinase assay (Ki)). Details: 1 mM ATP.
Type: biochemical
Summary of the method: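 Ki values result from fitting fluorescence polarization signals to the Morrison equation for tight-binding competitive inhibitors. The detector was GST-Grp1 PH domain with TAMRA-PIP3, read after a 30 min room-temperature reaction of 0.5 nM truncated PI3Kα and 30 μM PIP2 at pH 7.4 in HEPES/NaCl/MgCl2/DTT/CHAPS buffer. Compounds were tested as 12-point 3-fold dilutions from 3 μM.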

Chain of truncated PI3Kα (p110α/iSH2 p85α) (P42336 whole entry, the tested form may be a part): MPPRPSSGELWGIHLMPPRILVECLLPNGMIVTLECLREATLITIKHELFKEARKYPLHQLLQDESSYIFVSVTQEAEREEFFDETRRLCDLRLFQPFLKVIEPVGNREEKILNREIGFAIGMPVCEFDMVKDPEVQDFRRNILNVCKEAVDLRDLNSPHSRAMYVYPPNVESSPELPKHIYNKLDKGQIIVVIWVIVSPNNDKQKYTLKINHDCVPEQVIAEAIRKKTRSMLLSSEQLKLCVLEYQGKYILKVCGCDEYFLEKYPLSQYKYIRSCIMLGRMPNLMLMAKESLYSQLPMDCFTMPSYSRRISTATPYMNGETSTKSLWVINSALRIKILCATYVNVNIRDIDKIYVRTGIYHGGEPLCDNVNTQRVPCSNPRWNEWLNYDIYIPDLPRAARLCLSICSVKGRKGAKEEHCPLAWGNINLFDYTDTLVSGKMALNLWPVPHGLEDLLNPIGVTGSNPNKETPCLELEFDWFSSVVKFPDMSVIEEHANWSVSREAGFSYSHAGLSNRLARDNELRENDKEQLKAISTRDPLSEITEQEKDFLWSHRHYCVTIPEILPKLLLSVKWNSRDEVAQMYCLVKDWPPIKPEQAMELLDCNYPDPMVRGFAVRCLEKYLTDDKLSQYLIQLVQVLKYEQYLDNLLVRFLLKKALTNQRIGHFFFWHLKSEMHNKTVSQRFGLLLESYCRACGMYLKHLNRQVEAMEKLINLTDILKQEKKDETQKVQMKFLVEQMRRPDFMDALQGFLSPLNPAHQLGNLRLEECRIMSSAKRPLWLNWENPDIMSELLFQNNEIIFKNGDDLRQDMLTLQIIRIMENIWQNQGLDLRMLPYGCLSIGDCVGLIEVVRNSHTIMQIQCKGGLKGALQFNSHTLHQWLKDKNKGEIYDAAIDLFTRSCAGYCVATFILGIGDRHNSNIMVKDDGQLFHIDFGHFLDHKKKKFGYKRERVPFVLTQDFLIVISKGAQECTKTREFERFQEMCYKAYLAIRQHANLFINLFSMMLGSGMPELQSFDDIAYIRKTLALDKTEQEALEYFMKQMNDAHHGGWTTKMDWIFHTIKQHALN

First: C[C@]1(N2CCc3c(-c4cnc(N)nc4)nc(N4CCOCC4)nc32)CCN(C(=O)C2(N)CC2)C1.Cl [Example 340, (1-aminocyclopropyl) {(3S)-3-[4-(2-aminopyrimidin-5-yl)-2-(morpholin-4-yl)-5,6-dihydro-7H-pyrrolo[2,3-d]pyrimidin-7-yl]-3-methylpyrrolidin-1-yl}methanone hydrochloride]
Second: C[C@]1(N2CCc3c(-c4cnc(N)nc4)nc(N4CCOCC4)nc32)CCN(C(=O)C2(N)CCC2)C1 [Example 346, (1-aminocyclobutyl) {(3S)-3-[4-(2-aminopyrimidin-5-yl)-2-(morpholin-4-yl)-5,6-dihydro-7H-pyrrolo[2,3-d]pyrimidin-7-yl]-3-methylpyrrolidin-1-yl}methanone]
The “PI3KA_Act Ki” value of the first is 1.9-fold higher: 0.234 nM for the first, 0.125 nM for the second.

First: C[C@@]1(N2CCc3c(-c4cnc(N)nc4)nc(N4CCOCC4)nc32)CCN(C(=O)C2CCC2)C1 [Example 342, {(3R)-3-[4-(2-aminopyrimidin-5-yl)-2-(morpholin-4-yl)-5,6-dihydro-7H-pyrrolo[2,3-d]pyrimidin-7-yl]-3-methylpyrrolidin-1-yl}(cyclobutyl)meth-anone]
Second: C[C@]1(N2CCc3c(-c4cnc(N)nc4)nc(N4CCOCC4)nc32)CCN(C(=O)C2CNC2)C1.Cl [Example 349, {(3S)-3-[4-(2-aminopyrimidin-5-yl)-2-(morpholin-4-yl)-5,6-dihydro-7H-pyrrolo[2,3-d]pyrimidin-7-yl]-3-methylpyrrolidin-1-yl}(azetidin-3-yl)methanone hydrochloride]
The “PI3KA_Act Ki” value of the first is 5.4-fold higher: 0.141 nM for the first, 0.026 nM for the second.

C[C@]1(N2CCc3c(-c4cnc(N)nc4)nc(N4CCOCC4)nc32)CCN(C(=O)C2(O)CCC2)C1 [Example 343, {(3S)-3-[4-(2-aminopyrimidin-5-yl)-2-(morpholin-4-yl)-5,6-dihydro-7H-pyrrolo[2,3-d]pyrimidin-7-yl]-3-methylpyrrolidin-1-yl}(1-hydroxycyclobutyl) methanone] and C[C@@]1(N2CCc3c(-c4cnc(N)nc4)nc(N4CCOCC4)nc32)CCN(C(=O)C2(O)CCC2)C1 [Example 344, {(3R)-3-[4-(2-aminopyrimidin-5-yl)-2-(morpholin-4-yl)-5,6-dihydro-7H-pyrrolo[2,3-d]pyrimidin-7-yl]-3-methylpyrrolidin-1-yl}(1-hydroxycyclobutyl) methanone] are within 1.5-fold of each other in “PI3KA_Act Ki” value: 0.089 nM for the first, 0.098 nM for the second.

C[C@]1(N2CCc3c(-c4cnc(N)nc4)nc(N4CCOCC4)nc32)CCN(C(=O)C2CC(O)C2)C1 (stereo partly drawn) [Example 345, {(3S)-3-[4-(2-aminopyrimidin-5-yl)-2-(morpholin-4-yl)-5,6-dihydro-7H-pyrrolo[2,3-d]pyrimidin-7-yl]-3-methylpyrrolidin-1-yl}(3-hydroxycyclobutyl) methanone] and CN1CC(C(=O)N2CC[C@](C)(N3CCc4c(-c5cnc(N)nc5)nc(N5CCOCC5)nc43)C2)C1 [Example 356, {(3S)-3-[4-(2-aminopyrimidin-5-yl)-2-(morpholin-4-yl)-5,6-dihydro-7H-pyrrolo[2,3-d]pyrimidin-7-yl]-3-methylpyrrolidin-1-yl}(1-methylazetidin-3-yl)methanone] are within 1.5-fold of each other in “PI3KA_Act Ki” value: 0.028 nM for the first, 0.037 nM for the second.

C[C@]1(N2CCc3c(-c4cnc(N)nc4)nc(N4CCOCC4)nc32)CCN(C(=O)[C@@H]2CCN2)C1.Cl [Example 347, {(3S)-3-[4-(2-aminopyrimidin-5-yl)-2-(morpholin-4-yl)-5,6-dihydro-7H-pyrrolo[2,3-d]pyrimidin-7-yl]-3-methylpyrrolidin-1-yl}[(2S)-azetidin-2-yl]methanone hydrochloride] and C[C@]1(N2CCc3c(-c4cnc(N)nc4)nc(N4CCOCC4)nc32)CCN(C(=O)C2CCN2)C1.Cl (stereo partly drawn) [Example 348, {(3S)-3-[4-(2-aminopyrimidin-5-yl)-2-(morpholin-4-yl)-5,6-dihydro-7H-pyrrolo[2,3-d]pyrimidin-7-yl]-3-methylpyrrolidin-1-yl}(azetidin-2-yl)methanone hydrochloride] are within 1.5-fold of each other in “PI3KA_Act Ki” value: 0.075 nM for the first, 0.066 nM for the second.

C[C@]1(N2CCc3c(-c4cnc(N)nc4)nc(N4CCOCC4)nc32)CCN(C(=O)[C@]2(C)CCN2)C1.Cl [Example 350, {(3S)-3-[4-(2-aminopyrimidin-5-yl)-2-(morpholin-4-yl)-5,6-dihydro-7H-pyrrolo[2,3-d]pyrimidin-7-yl]-3-methylpyrrolidin-1-yl}[(2S)-2-methylazetidin-2-yl]methanone hydrochloride] and C[C@]1(N2CCc3c(-c4cnc(N)nc4)nc(N4CCOCC4)nc32)CCN(C(=O)[C@@]2(C)CCN2)C1 [Example 351, {(3S)-3-[4-(2-aminopyrimidin-5-yl)-2-(morpholin-4-yl)-5,6-dihydro-7H-pyrrolo[2,3-d]pyrimidin-7-yl]-3-methylpyrrolidin-1-yl}[(2R)-2-methylazetidin-2-yl]methanone] are within 1.5-fold of each other in “PI3KA_Act Ki” value: 0.045 nM for the first, 0.059 nM for the second.

Going from CN1CC[C@@H]1C(=O)N1CC[C@](C)(N2CCc3c(-c4cnc(N)nc4)nc(N4CCOCC4)nc32)C1 [Example 353, {(3S)-3-[4-(2-aminopyrimidin-5-yl)-2-(morpholin-4-yl)-5,6-dihydro-7H-pyrrolo[2,3-d]pyrimidin-7-yl]-3-methylpyrrolidin-1-yl}[(2R)-1-methylazetidin-2-yl]methanone] to CN1CC[C@H]1C(=O)N1CC[C@](C)(N2CCc3c(-c4cnc(N)nc4)nc(N4CCOCC4)nc32)C1 [Example 354, {(3S)-3-[4-(2-aminopyrimidin-5-yl)-2-(morpholin-4-yl)-5,6-dihydro-7H-pyrrolo[2,3-d]pyrimidin-7-yl]-3-methylpyrrolidin-1-yl}[(2S)-1-methylazetidin-2-yl]methanone], the “PI3KA_Act Ki” value falls from 0.078 nM to 0.049 nM (1.6-fold).

CN1CCC1(C)C(=O)N1CC[C@](C)(N2CCc3c(-c4cnc(N)nc4)nc(N4CCOCC4)nc32)C1 (stereo partly drawn) [Example 355, {(3S)-3-[4-(2-aminopyrimidin-5-yl)-2-(morpholin-4-yl)-5,6-dihydro-7H-pyrrolo[2,3-d]pyrimidin-7-yl]-3-methylpyrrolidin-1-yl}(1,2-dimethylazetidin-2-yl)methanone] and C[C@@]1(N2CCc3c(-c4cnc(N)nc4)nc(N4CCOCC4)nc32)CCN(C(=O)N2CCC2)C1 [Example 361, {(3R)-3-[4-(2-aminopyrimidin-5-yl)-2-(morpholin-4-yl)-5,6-dihydro-7H-pyrrolo[2,3-d]pyrimidin-7-yl]-3-methylpyrrolidin-1-yl}(azetidin-1-yl)methanone] are within 1.5-fold of each other in “PI3KA_Act Ki” value: 0.102 nM for the first, 0.078 nM for the second.

CC(C)(C)OC(=O)N1CC[C@H]1C(=O)N1CC[C@@](C)(N2CCc3c(-c4cnc(N)nc4)nc(N4CCOCC4)nc32)C1 [Example 357, tert-butyl (2S)-2-({(3R)-3-[4-(2-aminopyrimidin-5-yl)-2-(morpholin-4-yl)-5,6-dihydro-7H-pyrrolo[2,3-d]pyrimidin-7-yl]-3-methylpyrrolidin-1-yl}carbonyl)azetidine-1-carboxylate] and CC(C)(C)OC(=O)N1CCC1C(=O)N1CC[C@](C)(N2CCc3c(-c4cnc(N)nc4)nc(N4CCOCC4)nc32)C1 (stereo partly drawn) [Example 358, tert-butyl 2-({(3S)-3-[4-(2-aminopyrimidin-5-yl)-2-(morpholin-4-yl)-5,6-dihydro-7H-pyrrolo[2,3-d]pyrimidin-7-yl]-3-methylpyrrolidin-1-yl}carbonyl)azetidine-1-carboxylate] are within 1.5-fold of each other in “PI3KA_Act Ki” value: 0.144 nM for the first, 0.171 nM for the second.

First: CC(C)(C)OC(=O)N1CC(F)(C(=O)N2CC[C@](C)(N3CCc4c(-c5cnc(N)nc5)nc(N5CCOCC5)nc43)C2)C1 [Example 359, tert-butyl 3-({(3S)-3-[4-(2-aminopyrimidin-5-yl)-2-(morpholin-4-yl)-5,6-dihydro-7H-pyrrolo[2,3-d]pyrimidin-7-yl]-3-methylpyrrolidin-1-yl}carbonyl)-3-fluoroazetidine-1-carboxylate]
Second: CC1(C)CN[C@@H]1C(=O)N1CC[C@](C)(N2CCc3c(-c4cnc(N)nc4)nc(N4CCOCC4)nc32)C1.Cl [Example 362, {(3S)-3-[4-(2-aminopyrimidin-5-yl)-2-(morpholin-4-yl)-5,6-dihydro-7H-pyrrolo[2,3-d]pyrimidin-7-yl]-3-methylpyrrolidin-1-yl}[(2S)-3,3-dimethylazetidin-2-yl]methanone hydrochloride]
The “PI3KA_Act Ki” value of the first is 3.1-fold higher: 0.128 nM for the first, 0.041 nM for the second.

In the case of C[C@]1(N2CCc3c(-c4cnc(N)nc4)nc(N4CCOCC4)nc32)CCN(C(=O)C2CCC2)C1 [Example 341, {(3S)-3-[4-(2-aminopyrimidin-5-yl)-2-(morpholin-4-yl)-5,6-dihydro-7H-pyrrolo[2,3-d]pyrimidin-7-yl]-3-methylpyrrolidin-1-yl}(cyclobutyl)meth-anone], the “PI3KA_Act Ki” value is reported as less than 0.018 nM.
In the case of C[C@]1(N2CCc3c(-c4cnc(N)nc4)nc(N4CCOCC4)nc32)CCN(C(=O)C2(F)CNC2)C1.Cl [Example 352, {(3S)-3-[4-(2-aminopyrimidin-5-yl)-2-(morpholin-4-yl)-5,6-dihydro-7H-pyrrolo[2,3-d]pyrimidin-7-yl]-3-methylpyrrolidin-1-yl}(3-fluoroazetidin-3-yl)methanone hydrochloride], the “PI3KA_Act Ki” value is reported as less than 0.018 nM.
C[C@]1(N2CCc3c(-c4cnc(N)nc4)nc(N4CCOCC4)nc32)CCN(C(=O)N2CCC2)C1 [Example 360, {(3S)-3-[4-(2-aminopyrimidin-5-yl)-2-(morpholin-4-yl)-5,6-dihydro-7H-pyrrolo[2,3-d]pyrimidin-7-yl]-3-methylpyrrolidin-1-yl}(azetidin-1-yl)methanone] was tested, and the “PI3KA_Act Ki” value was less than 0.018 nM.
